This note sets out measurements from PubChem BioAssay (NCI).

SMILES strings stand for the structures.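 Growth conditions: 96-well plates. Treatment: test compound, 48 hours, 5 concentrations. Analysis: linear interpolation between bracketing concentrations; unreached endpoints set to highest concentration. GI50 is the concentration that inhibits growth by half. At the TGI there is no net growth.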

Test systems include CCRF-CEM leukemia; HOP-62 NSCLC; HOP-92 NSCLC; M14 melanoma; OVCAR-5 ovarian; SW-620 colon; T-47D breast; UACC-257 melanoma; UO-31 renal; MOLT-4 leukemia.
What all share (experiment): growth of human tumour cells (NCI), 48 h

As to `CCOc1cc2ncc(C#N)c(Nc3ccc(OCc4cccc(F)c4)c(Cl)c3)c2cc1NC(=O)CC1CCSS1` (configuration not stated), the GI50 was 0.146 µM with CCRF-CEM leukemia; above 11.5 µM with HOP-92 NSCLC; 0.45 µM with M14 melanoma; above 25 µM in the assay with OVCAR-5 ovarian; above 25 µM with SW-620 colon; 0.978 µM in the assay on T-47D breast. Besides, the GI50 with UACC-257 melanoma is 24.5 µM; in the assay on UO-31 renal it was 1.04 µM. For the same molecule, the TGI was above 25 µM in the assay on CCRF-CEM leukemia; above 15.1 µM with HOP-62 NSCLC; above 25 µM in the assay on HOP-92 NSCLC; 0.915 µM in the assay with M14 melanoma; above 25 µM in the assay on OVCAR-5 ovarian; above 25 µM in the assay on SW-620 colon. Besides, the TGI in the assay with T-47D breast, with UACC-257 melanoma and with UO-31 renal was above 25 µM in each case.

For `CC(=O)n1c(COS(C)(=O)=O)nc2ccccc21`, the TGI in the assay with HOP-62 NSCLC, in the assay on HOP-92 NSCLC, with M14 melanoma, with OVCAR-5 ovarian, in the assay on SW-620 colon and in the assay with T-47D breast was above 100 µM throughout. Also, the TGI in the assay on UACC-257 melanoma and with UO-31 renal was above 100 µM in each case.

Take `CC(=O)O/C=C(/C=C/OC(C)=O)C(C/C=C(\C)C#CC=C(C)C)OC(C)=O` (configuration not stated): the TGI in the assay with CCRF-CEM leukemia is above 100 µM; with HOP-62 NSCLC, above 100 µM; in the assay with HOP-92 NSCLC, 91.3 µM; in the assay on M14 melanoma, 98.6 µM; in the assay with MOLT-4 leukemia, above 100 µM; with OVCAR-5 ovarian, above 100 µM. In addition, the TGI in the assay with SW-620 colon, with UACC-257 melanoma and with UO-31 renal was above 100 µM each time.

Consider `CC1=C(C(=O)Nc2ccccc2C)C(c2ccccc2)C(C(=O)Nc2ccccc2C)=C(C)N1`, for which the TGI was 73.9 µM with CCRF-CEM leukemia; above 100 µM in the assay with HOP-62 NSCLC; 41.2 µM in the assay with HOP-92 NSCLC; above 100 µM in the assay with M14 melanoma; 53 µM in the assay with MOLT-4 leukemia; above 100 µM in the assay with OVCAR-5 ovarian. Besides, the TGI with SW-620 colon, in the assay on UACC-257 melanoma and with UO-31 renal was above 100 µM throughout.

As for `COc1cc(CCc2ccc(OCCN(C)C)cc2)cc(OC)c1OC`, the TGI is above 100 µM in the assay on CCRF-CEM leukemia; above 100 µM with HOP-62 NSCLC; above 100 µM with HOP-92 NSCLC; above 100 µM in the assay with M14 melanoma; above 100 µM in the assay on MOLT-4 leukemia; 88.4 µM in the assay on OVCAR-5 ovarian. Moreover, the TGI in the assay on SW-620 colon, with UACC-257 melanoma and in the assay with UO-31 renal was above 100 µM in each case.

For the molecule `Cc1nc2c(nc1C)C(=O)c1cc(O)ccc1C2=O`, the TGI with CCRF-CEM leukemia, with HOP-62 NSCLC, in the assay with HOP-92 NSCLC, in the assay on M14 melanoma, with MOLT-4 leukemia and in the assay on OVCAR-5 ovarian was above 100 µM each time. For the same molecule, the TGI is above 100 µM in the assay with SW-620 colon, above 78 µM in the assay on UACC-257 melanoma and above 100 µM with UO-31 renal.

Turning to `O=c1oc2cc(OS(=O)(=O)c3ccc(F)cc3)ccc2c2c1CCCCC2`, the GI50 in the assay on HOP-62 NSCLC was 45.1 µM; with HOP-92 NSCLC, 4.05 µM; in the assay with M14 melanoma, above 100 µM; in the assay on MOLT-4 leukemia, above 100 µM; in the assay with OVCAR-5 ovarian, above 100 µM; in the assay on T-47D breast it was 1.86 µM. Moreover, the GI50 in the assay with UACC-257 melanoma and with UO-31 renal was above 100 µM each time. Besides, the TGI with HOP-62 NSCLC was above 100 µM; with HOP-92 NSCLC it was 95.1 µM; in the assay on M14 melanoma it was above 100 µM; in the assay with MOLT-4 leukemia, above 100 µM; in the assay on OVCAR-5 ovarian it was above 100 µM; in the assay on T-47D breast it was above 100 µM. The TGI in the assay with UACC-257 melanoma and in the assay with UO-31 renal was above 100 µM throughout.

Turning to `CCOC(=O)c1c2c(n3ccc(NC(=O)CCN4CCCC4)cc13)C(=O)c1ncccc1C2=O`, the GI50 in the assay with CCRF-CEM leukemia is 1.88 µM; in the assay on HOP-62 NSCLC it was 1.08 µM; in the assay on HOP-92 NSCLC it was 11.8 µM; with MOLT-4 leukemia it was 1.52 µM; in the assay with OVCAR-5 ovarian, 1.57 µM; in the assay on T-47D breast it was 1.7 µM. Also, the GI50 is 13.8 µM with UACC-257 melanoma and 0.724 µM with UO-31 renal. The TGI amounted to 5.41 µM in the assay on CCRF-CEM leukemia; 3.11 µM in the assay with HOP-62 NSCLC; 27.5 µM in the assay with HOP-92 NSCLC; 4.81 µM in the assay with MOLT-4 leukemia; 3.42 µM in the assay with OVCAR-5 ovarian; 4.24 µM in the assay on T-47D breast. For the same molecule, the TGI with UACC-257 melanoma was 33.9 µM; in the assay on UO-31 renal it was 2.81 µM.

As for `O=[N+]([O-])c1ccc(C(c2c[nH]c3ccccc23)c2c[nH]c3ccccc23)cc1`, the TGI in the assay with CCRF-CEM leukemia is 1.17 µM; in the assay with HOP-62 NSCLC, 30.3 µM; in the assay with M14 melanoma it was 33.2 µM; with MOLT-4 leukemia, 40.9 µM; with OVCAR-5 ovarian, 54.4 µM; with SW-620 colon, 27.9 µM. For the same molecule, the TGI in the assay with T-47D breast was 7.07 µM; with UACC-257 melanoma it was 9.79 µM; with UO-31 renal it was 22.9 µM.

As to `COc1nc(N(C)O)nc(N(C)O)n1`, the GI50 in the assay with CCRF-CEM leukemia was 0.624 µM; in the assay on HOP-62 NSCLC, 0.442 µM; in the assay with MOLT-4 leukemia, 0.885 µM; in the assay with SW-620 colon it was 2.57 µM; with T-47D breast, 4.51 µM; with UACC-257 melanoma, 3.52 µM. The GI50 in the assay with UO-31 renal is 1.13 µM. For the same molecule, the TGI in the assay with CCRF-CEM leukemia is above 100 µM; in the assay on HOP-62 NSCLC, 6.3 µM; in the assay with MOLT-4 leukemia, above 100 µM; with SW-620 colon it was above 100 µM; in the assay with T-47D breast it was above 100 µM; in the assay with UACC-257 melanoma, above 100 µM. In the assay on UO-31 renal, this molecule displayed a TGI above 100 µM.

For `COc1cc(C2C=C(c3cccc(NC(C)=O)c3)Nc3ncnn32)cc(OC)c1OC` (configuration not stated), the GI50 in the assay with CCRF-CEM leukemia was 0.72 µM; with HOP-62 NSCLC it was 0.554 µM; in the assay with M14 melanoma, 0.392 µM; in the assay with MOLT-4 leukemia it was 1.65 µM; in the assay with SW-620 colon, 0.313 µM; in the assay with UACC-257 melanoma, above 92.5 µM. For the same molecule, in the assay on UO-31 renal, the GI50 is 33.5 µM. Besides, the TGI was 4.16 µM in the assay with CCRF-CEM leukemia; above 100 µM in the assay with HOP-62 NSCLC; above 65.1 µM in the assay with HOP-92 NSCLC; above 100 µM in the assay on M14 melanoma; above 100 µM with MOLT-4 leukemia; above 100 µM in the assay on OVCAR-5 ovarian. Besides, the TGI with SW-620 colon, in the assay with UACC-257 melanoma and in the assay with UO-31 renal was above 100 µM each time.
